≈ marks a conversion by molar mass, not a printed value. Calls of active or inactive are those of the source. The calls are words filed in the database; no cut-off is given here.
Columns and labels:
[1] = test system: Shigella sonnei; test: Antibacterial activity against Shigella sonnei […] after 18 to 24 hrs by agar dilution method; type: functional
[2] = test system: Human immunodeficiency virus; test: Antiviral activity against HIV infected in human PBMC assessed as decrease in viral p24 antigen production at 0.25 to 4 ug/ml after 14 days by ELISA; type: functional, organism-based
[3] = test system: Haemophilus influenzae; test: Antibacterial activity against Haemophilus influenzae […] after 18 to 24 hrs by agar dilution method; type: functional
[4] = test system: Salmonella; test: Antibacterial activity against Salmonella group D after 18 to 24 hrs by agar dilution method; type: functional
[5] = test system: Streptococcus pneumoniae; test: Antibacterial activity against Streptococcus pneumoniae after 18 to 24 hrs by agar dilution method; type: functional
[6] = test system: Streptococcus pneumoniae; test: Antibacterial activity against Streptococcus pneumoniae ATCC 49619 after 18 to 24 hrs by agar dilution method; type: functional
[7] = test system: Escherichia coli; test: Antibacterial activity against Escherichia coli ATCC 25922 after 18 to 24 hrs by agar dilution method; type: functional
[8] = test system: Escherichia coli; test: Antibacterial activity against Escherichia coli after 18 to 24 hrs by agar dilution method; type: functional
[9] = Antibacterial activity against Salmonella group B ATCC 31194 after 18 to 24 hrs by agar dilution method; type: functional; conditions: Salmonella sp. 'group B'
[10] = test system: Staphylococcus aureus; test: Antibacterial activity against Staphylococcus aureus ATCC 29213 after 18 to 24 hrs by agar dilution method; type: functional
[11] = test system: Haemophilus influenzae; test: Antibacterial activity against Haemophilus influenzae after 18 to 24 hrs by agar dilution method; type: functional
[12] = test system: Shigella flexneri; test: Antibacterial activity against Shigella flexneri group B after 18 to 24 hrs by agar dilution method; type: functional
[13] = test system: Staphylococcus aureus; test: Antibacterial activity against Staphylococcus aureus after 18 to 24 hrs by agar dilution method; type: functional

Cc1ccnc2c1NC(=O)c1cccnc1N2C1CC1 [NEVIRAPINE]
MIC [1]: 4 µg/mL (≈ 15 µM)
inhibition [2]: Active
MIC [3]: 4 µg/mL (≈ 15 µM)
MIC [4]: 4 µg/mL (≈ 15 µM)
MIC [5]: 4 µg/mL (≈ 15 µM)
MIC [6]: 4 µg/mL (≈ 15 µM)
MIC [7]: 4 µg/mL (≈ 15 µM)
MIC [8]: 4 µg/mL (≈ 15 µM)
MIC [9]: 4 µg/mL (≈ 15 µM)
MIC [10]: 4 µg/mL (≈ 15 µM)
MIC [11]: 4 µg/mL (≈ 15 µM)
MIC [12]: 4 µg/mL (≈ 15 µM)
MIC [13]: 4 µg/mL (≈ 15 µM)

Source: ChEMBL document CHEMBL1649556, “Lack of antimicrobial activity by the antiretroviral drug nevirapine against common bacterial pathogens” (2009)
